Test results: patent publication US20140107109A1, “AMINO-DIHYDROTHIAZINE AND AMINO-DIOXIDO DIHYDROTHIAZINE COMPOUNDS AS BETA-SECRETASE ANTAGONISTS AND METHODS OF USE” (Amgen Inc., priority 2012, published 2014)
Like-named read-outs stand apart in the source and are kept apart here.

Tests used:
[1] = target: Beta Secretase enzyme (BACE1) (Homo sapiens, UniProt P56817); experiment: In vitro enzymatic BACE FRET assay; type: biochemical; details: read-out: BACE1 FRET assay IC50
Outline: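 Readout: dequenched fluorescence (ex 488 nm/[…]) after neutralizing with Tris buffer. Reactions, begun by adding 50 nM quenched peptide substrate spanning the BACE cleavage site, were incubated one hour at pH 4.2 in 0.05 M acetate with 100 uM genapol and 10% final DMSO.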

[2] = target: T1, Cathepsin D (Cat D) (Homo sapiens, UniProt P07339); experiment: In vitro enzymatic Cathepsin D (Cat D) FRET assay; type: biochemical; details: read-out: CatD IC50
T1 construct: Recombinant Cat D was expressed in CHO cells; made in house; host or cells: CHO cells
T1 sequence (P07339 65-412, species assumed): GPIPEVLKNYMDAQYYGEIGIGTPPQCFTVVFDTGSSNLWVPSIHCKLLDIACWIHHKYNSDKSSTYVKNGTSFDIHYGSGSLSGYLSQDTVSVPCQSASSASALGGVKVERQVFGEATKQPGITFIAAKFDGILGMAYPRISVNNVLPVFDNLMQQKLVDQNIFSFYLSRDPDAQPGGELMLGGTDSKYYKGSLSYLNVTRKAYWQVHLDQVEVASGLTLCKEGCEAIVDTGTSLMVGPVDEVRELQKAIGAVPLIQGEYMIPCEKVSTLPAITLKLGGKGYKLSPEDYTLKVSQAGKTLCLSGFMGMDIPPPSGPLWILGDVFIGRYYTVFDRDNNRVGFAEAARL
Outline: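 FRET read-out: a fluorophore/quencher-labelled peptide substrate is cleaved by 9 nM Cat D (recombinant, CHO-expressed) following a one-hour preincubation with inhibitor dilutions in DMSO. Tris buffer added to neutralize pH ends the reaction before fluorescence measurement.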

[3] = test system: Aβ40 in conditioned medium of cells stably expressing Amyloid Precursor Protein (APP); experiment: In vitro BACE cell-based assay (HEK cell assay), Aβ40 sandwich ELISA; details: Homo sapiens, HEK293
Outline: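 Aβ40 in conditioned medium was quantified by time-resolved fluorescence sandwich ELISA (pAb40 capture 3 h at 4 °C, biotin-6E10 detection 2 h at 4 °C) after 24 h compound exposure of APP-expressing cells. Doses spanned 10 points from 100 μM or 10 μM top, 0.1% DMSO; IC50 was derived from percent of control.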

Sequence of Beta Secretase enzyme (BACE1) (P56817 46-501): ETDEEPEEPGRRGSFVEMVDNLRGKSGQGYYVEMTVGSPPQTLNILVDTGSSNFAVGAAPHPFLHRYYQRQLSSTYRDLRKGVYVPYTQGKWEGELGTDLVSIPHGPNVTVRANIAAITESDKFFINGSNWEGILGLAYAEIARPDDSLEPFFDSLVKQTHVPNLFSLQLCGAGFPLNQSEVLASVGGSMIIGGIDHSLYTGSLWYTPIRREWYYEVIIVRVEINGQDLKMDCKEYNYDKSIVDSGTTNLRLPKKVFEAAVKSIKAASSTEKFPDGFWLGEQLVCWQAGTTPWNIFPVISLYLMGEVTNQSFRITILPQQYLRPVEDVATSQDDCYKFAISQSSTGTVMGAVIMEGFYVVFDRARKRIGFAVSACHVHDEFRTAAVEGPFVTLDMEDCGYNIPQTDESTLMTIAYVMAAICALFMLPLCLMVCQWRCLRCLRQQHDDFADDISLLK

Compound	IC50 ([1]; average IC50, enzyme assay) [nM]	IC50 [2] [nM]	IC50 ([3]; average IC50, HEK cell assay) [nM]	IC50 [1] [nM]	IC50 [3] [nM]
CC1(C)C(N)=N[C@](C)(c2cc(NC(=O)c3ncc(C#N)cc3Cl)ccc2F)CS1(=O)=O [Example 356, N-(3-((3R)-5-amino-3,6,6-trimethyl-1,1-dioxido-3,6-dihydro-2H-1,4-thiazin-3-yl)-4-fluorophenyl)-3-chloro-5-cyano-2-pyridinecarboxamide]	0.35	710000	1.2	–	–
COc1cnc(C(=O)Nc2ccc(F)c([C@]3(C)CS(=O)(=O)C(C)(C)C(N)=N3)c2)c(C)c1 [Example 357, N-(3-((3R)-5-amino-3,6,6-trimethyl-1,1-dioxido-3,6-dihydro-2H-1,4-thiazin-3-yl)-4-fluorophenyl)-5-methoxy-3-methyl-2-pyridinecarboxamide]	2.83	228000	2.5	–	–
Cc1cc(OC(F)F)cnc1C(=O)Nc1cnc(F)c([C@]2(C)CS(=O)(=O)C3(CCC3)C(N)=N2)c1 [Example 358, N-(5-((7R)-9-amino-7-methyl-5,5-dioxido-5-thia-8-azaspiro[3.5]non-8-en-7-yl)-6-fluoro-3-pyridinyl)-5-(difluoromethoxy)-3-methyl-2-pyridinecarboxamide]	6.42	139000	9.5	–	–
Cc1cc(Cl)cnc1C(=O)Nc1cnc(F)c([C@]2(C)CS(=O)(=O)C3(CCC3)C(N)=N2)c1 [Example 359, N-(5-((7R)-9-amino-7-methyl-5,5-dioxido-5-thia-8-azaspiro[3.5]non-8-en-7-yl)-6-fluoro-3-pyridinyl)-5-chloro-3-methyl-2-pyridinecarboxamide]	2.2	105000	5.21	–	–
Cc1cnc(C(=O)Nc2ccc(F)c([C@]3(CF)CS(=O)(=O)C(C)(C)C(N)=N3)c2)c(C)c1 [Example 360, N-(3-((3S)-5-amino-3-(fluoromethyl)-6,6-dimethyl-1,1-dioxido-3,6-dihydro-2H-1,4-thiazin-3-yl)-4-fluorophenyl)-3,5-dimethyl-2-pyridinecarboxamide]	2.99	636000	24.5	–	–
CC1(C)C(N)=N[C@](CF)(c2cc(NC(=O)c3ccc(C(F)F)cn3)ccc2F)CS1(=O)=O [Example 361, N-(3-((3S)-5-amino-3-(fluoromethyl)-6,6-dimethyl-1,1-dioxido-3,6-dihydro-2H-1,4-thiazin-3-yl)-4-fluorophenyl)-5-(difluoromethyl)-2-pyridinecarboxamide]	0.8	437000	19.3	–	–
CC1(C)C(N)=N[C@](CF)(c2cc(NC(=O)c3ccc(OC(F)F)cn3)ccc2F)CS1(=O)=O [Example 362, N-(3-((3S)-5-amino-3-(fluoromethyl)-6,6-dimethyl-1,1-dioxido-3,6-dihydro-2H-1,4-thiazin-3-yl)-4-fluorophenyl)-5-(difluoromethoxy)-2-pyridinecarboxamide]	0.3	303000	3.5	–	–
CC1(C)C(N)=N[C@](CF)(c2cc(NC(=O)c3ccc(F)cn3)ccc2F)CS1(=O)=O [Example 363, N-(3-((3S)-5-amino-3-(fluoromethyl)-6,6-dimethyl-1,1-dioxido-3,6-dihydro-2H-1,4-thiazin-3-yl)-4-fluorophenyl)-5-fluoro-2-pyridinecarboxamide]	1.7	> 400000	45.6	–	–
CC1(C)C(N)=N[C@](CF)(c2cc(NC(=O)c3cnc(OCC(F)F)cn3)ccc2F)CS1(=O)=O [Example 364, N-(3-((3S)-5-amino-3-(fluoromethyl)-6,6-dimethyl-1,1-dioxido-3,6-dihydro-2H-1,4-thiazin-3-yl)-4-fluorophenyl)-5-(2,2-difluoroethoxy)-2-pyrazinecarboxamide]	0.5	858000	21.4	–	–
CC1(C)C(N)=N[C@](CF)(c2cc(NC(=O)c3cnc(OCCF)cn3)ccc2F)CS1(=O)=O [Example 365, N-(3-((3S)-5-amino-3-(fluoromethyl)-6,6-dimethyl-1,1-dioxido-3,6-dihydro-2H-1,4-thiazin-3-yl)-4-fluorophenyl)-5-(2-fluoroethoxy)-2-pyrazinecarboxamide]	0.97	> 400000	44.7	–	–
Cc1cc(Cl)cnc1C(=O)Nc1ccc(F)c([C@]2(CF)CS(=O)(=O)C3(CCC3)C(N)=N2)c1 [Example 366, N-(3-((7S)-9-amino-7-(fluoromethyl)-5,5-dioxido-5-thia-8-azaspiro[3.5]non-8-en-7-yl)-4-fluorophenyl)-5-chloro-3-methyl-2-pyridinecarboxamide]	0.79	241000	14.1	–	–
Cc1c(C(=O)Nc2ccc(F)c([C@]3(CF)CS(=O)(=O)C4(CCC4)C(N)=N3)c2)nc2ccc(Cl)cn12 [Example 367, N-(3-((7S)-9-amino-7-(fluoromethyl)-5,5-dioxido-5-thia-8-azaspiro[3.5]non-8-en-7-yl)-4-fluorophenyl)-6-chloro-3-methylimidazo[1,2-a]pyridine-2-carboxamide]	5.07	> 400000	13.7	–	–
Cc1cc(C#N)cnc1C(=O)Nc1ccc(F)c([C@]2(CF)CS(=O)(=O)C3(CCC3)C(N)=N2)c1 [Example 368, N-(3-((7S)-9-amino-7-(fluoromethyl)-5,5-dioxido-5-thia-8-azaspiro[3.5]non-8-en-7-yl)-4-fluorophenyl)-5-cyano-3-methyl-2-pyridinecarboxamide]	0.64	222000	4.6	–	–
Cc1cc(C(F)F)cnc1C(=O)Nc1ccc(F)c([C@]2(CF)CS(=O)(=O)C3(CCC3)C(N)=N2)c1 [Example 369, N-(3-((7S)-9-amino-7-(fluoromethyl)-5,5-dioxido-5-thia-8-azaspiro[3.5]non-8-en-7-yl)-4-fluorophenyl)-5-(difluoromethyl)-3-methyl-2-pyridinecarboxamide]	–	233000	–	1.4	12.3
COCc1cc(Cl)cnc1C(=O)Nc1ccc(F)c([C@]2(CF)CS(=O)(=O)C3(CCC3)C(N)=N2)c1 [Example 370, N-(3-((7S)-9-amino-7-(fluoromethyl)-5,5-dioxido-5-thia-8-azaspiro[3.5]non-8-en-7-yl)-4-fluorophenyl)-5-chloro-3-(methoxymethyl)-2-pyridinecarboxamide]	–	> 400000	–	0.81	27.3
Cc1cc(OCC2CC2)cnc1C(=O)Nc1ccc(F)c([C@]2(CF)CS(=O)(=O)C3(CCC3)C(N)=N2)c1 [Example 371, N-(3-((7S)-9-amino-7-(fluoromethyl)-5,5-dioxido-5-thia-8-azaspiro[3.5]non-8-en-7-yl)-4-fluorophenyl)-5-(cyclopropylmethoxy)-3-methyl-2-pyridinecarboxamide]	–	391000	–	1.56	77
N#Cc1cnc(C(=O)Nc2ccc(F)c([C@]3(CF)CS(=O)(=O)C4(CCC4)C(N)=N3)c2)c(Cl)c1 [Example 372, N-(3-((7S)-9-amino-7-(fluoromethyl)-5,5-dioxido-5-thia-8-azaspiro[3.5]non-8-en-7-yl)-4-fluorophenyl)-3-chloro-5-cyano-2-pyridinecarboxamide]	–	367000	–	0.72	7.1
COc1cnc(C(=O)Nc2ccc(F)c([C@]3(CF)CS(=O)(=O)C4(CCC4)C(N)=N3)c2)c(C)c1 [Example 373, N-(3-((7S)-9-amino-7-(fluoromethyl)-5,5-dioxido-5-thia-8-azaspiro[3.5]non-8-en-7-yl)-4-fluorophenyl)-5-methoxy-3-methyl-2-pyridinecarboxamide]	–	197000	–	2.45	14.8
Cc1cc(OCC(F)(F)F)cnc1C(=O)Nc1ccc(F)c([C@]2(CF)CS(=O)(=O)C3(CCC3)C(N)=N2)c1 [Example 374, N-(3-((7S)-9-amino-7-(fluoromethyl)-5,5-dioxido-5-thia-8-azaspiro[3.5]non-8-en-7-yl)-4-fluorophenyl)-3-methyl-5-(2,2,2-trifluoroethoxy)-2-pyridinecarboxamide]	–	630000	–	1.1	61.6
COc1cc(Cl)cnc1C(=O)Nc1ccc(F)c([C@]2(CF)CS(=O)(=O)C3(CCC3)C(N)=N2)c1 [Example 375, N-(3-((7S)-9-amino-7-(fluoromethyl)-5,5-dioxido-5-thia-8-azaspiro[3.5]non-8-en-7-yl)-4-fluorophenyl)-5-chloro-3-methoxy-2-pyridinecarboxamide]	–	781000	–	2.9	29.8
CC1(C)C(N)=N[C@](CF)(c2cc(NC(=O)c3cnc(C(F)F)cn3)ccc2F)CS1(=O)=O [Example 376, N-(3-((3S)-5-amino-3-(fluoromethyl)-6,6-dimethyl-1,1-dioxido-3,6-dihydro-2H-1,4-thiazin-3-yl)-4-fluorophenyl)-5-(difluoromethyl)-2-pyrazinecarboxamide]	–	172000	–	2.23	61.5
COc1cnc(C(=O)Nc2ccc(F)c([C@]3(CF)CS(=O)(=O)C(C)(C)C(N)=N3)c2)c(C)c1 [Example 377, N-(3-((3S)-5-amino-3-(fluoromethyl)-6,6-dimethyl-1,1-dioxido-3,6-dihydro-2H-1,4-thiazin-3-yl)-4-fluorophenyl)-5-methoxy-3-methyl-2-pyridinecarboxamide]	–	335000	–	3	9.8
